Results from PMC7070407, “Moringin, A Stable Isothiocyanate from Moringa oleifera, Activates the Somatosensory and Pain Receptor TRPA1 Channel In Vitro” (Molecules, 2020).

How the values were obtained:
rat TRPA1 [1] = target: T1, rat TRPA1 (Rattus norvegicus, UniProt Q6RI86); assay: Elevation of intracellular Ca2+ (Fluo-4) in HEK-293 cells stably transfected with rat TRPA1; agonist and antagonist/desensitizing behaviour; type: cell-based; conditions: AP18 at 50 μM, 5 min pre-incubation, rTRPA1-HEK-293
T1 construct: expressed in transfected cells; host or cells: HEK-293
Protocol: Assay of rat TRPA1, TRPV2, TRPV3, TRPV4, TRPM8 or human TRPV1 mediated elevation of intracellular Ca^2+ in transfected HEK-293 cells are been performed as described. Briefly, human embryonic kidney (HEK-293) cells, stably transfected with rat TRPA1, TRPV2, TRPV3, TRPV4, TRPM8 or human TRPV1 (selected by Geneticin 600 μg mL^−1) or not transfected, were cultured in EMEM + 2 mM Glutamine + 1% Non-Essential Amino Acids (NEAA) + 10% FBS and maintained at 37 °C with 5% CO2. Stable transfections were checked by quantitative real-time polymerase chain reaction (PCR), quantitative real-time PCR was performed by an iCycler-iQ (Bio-Rad, Hercules, CA, USA) in a 20 μL reaction mixture containing the following: 10 μL iQ SYBR Green Supermix 2X (Bio-Rad), 20 ng of cDNA (calculated on the basis of the retro-transcribed RNA), and 330 nM for each primer. Optimized primers for SYBR Green analysis (and relative TaOpt) and optimum annealing temperatures were designed by Allele-Id software version 7.0 (Biosoft International, Palo Alto, CA, USA) and were synthesized (HPLC-purification grade) by MWG-Biotech AG (Ebersberg, Germany). Assays were performed in quadruplicate (maximal ΔCt of replicate samples, <0.5). Relative expression analysis, correct for PCR efficiency and normalized with respect to reference genes β-actin and glyceraldehyde 3-phosphate dehydrogenase, was performed by GENEX software (Bio-Rad). […] The day of the experiment the cells were loaded with Fluo-4 AM (4 μM in DMSO containing 0.02% Pluronic F-127) for 1 h in the dark at room temperature, rinsed and resuspended in Tyrode’s solution (145 mM NaCl, 2.5 mM KCl, 1.5 mM CaCl2, 1.2 mM MgCl2, 10 mM D-glucose, and 10 mM HEPES, pH 7.4), finally transferred to a quartz cuvette of a spectrofluorimeter (Perkin-Elmer LS50B; λEX = 488 nm, λEM = 516 nm) equipped with PTP-1 Fluorescence Peltier System (PerkinElmer Life and Analytical Sciences, Waltham, MA, USA) under continuous stirring. Cell fluorescence before and after the addition of various concentrations of test compounds and extracts were measured normalizing the effects against the response to ionomycin (4 µM). The values of the effect on [Ca^2+]i in HEK-293 cells not transfected are used as baseline and subtracted from the values obtained from transfected cells. […] The potency of the compounds (EC50 values) are determined as the concentration required to produce half-maximal increases in [Ca^2+]i. In TRPV3 assay TRPV3-expressing HEK293 cells were first sensitized with the structurally unrelated agonist 2-aminoethoxydiphenyl borate (100 μM). Antagonist/desensitizing behaviour is evaluated against the agonist of the TRP analyzed by adding the compounds directly in the quartz cuvette 5 min before stimulation of cells with the agonist. […] In order to assess functional antagonism of TRPA1 channels, AP18, 4-(4-chlorophenyl)-3-methyl-3-buten-2-one oxime […] Dose-response curve fitting (sigmoidal dose-response variable slope) and parameter estimation were performed with Graph-Pad Prism8® (GraphPad Software Inc., San Diego, CA, USA). All determinations were performed at least in triplicate.

rat TRPA1 [2] = target: T1, rat TRPA1; set-up: method as in PMID 28903060; conditions: TRPA1 in vitro; cited from earlier work

T1 sequence (Q6RI86 whole entry): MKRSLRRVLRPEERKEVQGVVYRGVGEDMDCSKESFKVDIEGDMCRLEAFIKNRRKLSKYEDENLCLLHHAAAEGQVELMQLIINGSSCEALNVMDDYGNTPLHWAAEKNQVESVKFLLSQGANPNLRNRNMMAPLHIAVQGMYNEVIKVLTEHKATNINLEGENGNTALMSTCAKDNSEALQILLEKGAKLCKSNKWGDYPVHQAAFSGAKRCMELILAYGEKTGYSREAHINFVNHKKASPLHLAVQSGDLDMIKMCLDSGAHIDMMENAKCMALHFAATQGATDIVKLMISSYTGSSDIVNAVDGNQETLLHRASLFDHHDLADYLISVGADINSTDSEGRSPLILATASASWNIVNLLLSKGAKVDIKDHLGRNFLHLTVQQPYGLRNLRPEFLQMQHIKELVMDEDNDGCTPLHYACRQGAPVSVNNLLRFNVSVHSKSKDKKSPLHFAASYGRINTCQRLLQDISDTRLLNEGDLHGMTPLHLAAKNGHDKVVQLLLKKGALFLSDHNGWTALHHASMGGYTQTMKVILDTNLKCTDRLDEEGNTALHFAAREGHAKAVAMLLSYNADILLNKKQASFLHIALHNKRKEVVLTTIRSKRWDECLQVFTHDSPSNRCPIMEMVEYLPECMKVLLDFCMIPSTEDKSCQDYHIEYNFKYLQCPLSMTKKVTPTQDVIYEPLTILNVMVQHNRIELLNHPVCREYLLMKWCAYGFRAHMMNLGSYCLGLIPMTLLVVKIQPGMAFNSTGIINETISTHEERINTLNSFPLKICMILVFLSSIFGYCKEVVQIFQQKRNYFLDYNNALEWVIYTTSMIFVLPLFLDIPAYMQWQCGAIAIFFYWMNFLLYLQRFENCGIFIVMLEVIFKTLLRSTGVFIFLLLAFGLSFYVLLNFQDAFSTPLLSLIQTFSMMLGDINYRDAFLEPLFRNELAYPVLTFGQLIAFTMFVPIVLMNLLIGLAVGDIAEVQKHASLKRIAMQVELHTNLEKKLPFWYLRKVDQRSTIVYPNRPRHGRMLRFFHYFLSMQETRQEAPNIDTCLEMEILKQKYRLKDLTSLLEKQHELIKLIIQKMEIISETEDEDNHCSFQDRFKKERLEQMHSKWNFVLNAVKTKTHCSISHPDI

CC(=Cc1ccc(Cl)cc1)C(C)=NO [AP18, 4-(4-chlorophenyl)-3-methyl-3-buten-2-one oxime, reference compound]
Reduction of elevation of intracellular Ca2+ induced by AITC (100 μM) (rat TRPA1 [1]): 68.6 ± 3.0%
Reduction of elevation of intracellular Ca2+ induced by moringin (10 μM) (rat TRPA1 [1]): 64.1 ± 2.7%

COc1cc(/C=C/C(=O)CC(=O)/C=C/c2ccc(O)c(OC)c2)ccc1O [curcumin]
EC50 (rat TRPA1 [2]): 3.3 µM
